From patent US20220226337A1 (Gilead Sciences, Inc., priority 2018, published 2022)

Target: T1, α4β7 integrin interaction with MadCAM-1 (RPMI8866 cells) (Homo sapiens, UniProt P13612+P26010)
T1 construct: α4β7 integrin expressing cells; endogenous in cells; host or cells: RPMI8866 cells
T1 sequence (P13612 34-1032): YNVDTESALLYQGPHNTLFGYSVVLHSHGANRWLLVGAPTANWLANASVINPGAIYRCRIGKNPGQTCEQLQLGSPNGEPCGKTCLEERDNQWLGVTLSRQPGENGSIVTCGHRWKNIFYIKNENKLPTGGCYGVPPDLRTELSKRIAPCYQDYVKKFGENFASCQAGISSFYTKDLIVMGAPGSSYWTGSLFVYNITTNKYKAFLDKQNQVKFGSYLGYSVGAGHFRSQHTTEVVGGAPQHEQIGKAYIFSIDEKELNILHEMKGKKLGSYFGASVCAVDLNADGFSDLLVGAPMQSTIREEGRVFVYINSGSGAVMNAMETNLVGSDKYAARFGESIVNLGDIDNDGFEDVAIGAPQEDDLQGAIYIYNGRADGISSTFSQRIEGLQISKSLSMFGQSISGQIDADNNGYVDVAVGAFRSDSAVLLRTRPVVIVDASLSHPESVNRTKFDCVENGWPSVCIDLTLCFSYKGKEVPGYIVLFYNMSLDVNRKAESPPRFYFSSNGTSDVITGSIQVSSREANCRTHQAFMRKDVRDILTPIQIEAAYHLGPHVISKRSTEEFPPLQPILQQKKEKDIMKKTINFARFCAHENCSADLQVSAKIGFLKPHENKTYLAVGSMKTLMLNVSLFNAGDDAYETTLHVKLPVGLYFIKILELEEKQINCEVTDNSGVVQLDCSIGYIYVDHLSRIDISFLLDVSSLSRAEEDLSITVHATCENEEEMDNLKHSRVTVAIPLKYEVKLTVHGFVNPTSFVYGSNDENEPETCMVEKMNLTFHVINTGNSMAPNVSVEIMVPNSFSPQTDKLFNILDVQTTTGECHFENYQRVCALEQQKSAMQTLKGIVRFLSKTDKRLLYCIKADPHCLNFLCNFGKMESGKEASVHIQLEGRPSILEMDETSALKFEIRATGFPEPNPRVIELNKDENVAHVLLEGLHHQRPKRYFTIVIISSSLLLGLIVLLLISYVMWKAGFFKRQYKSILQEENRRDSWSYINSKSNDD
T1 sequence (P26010 20-798): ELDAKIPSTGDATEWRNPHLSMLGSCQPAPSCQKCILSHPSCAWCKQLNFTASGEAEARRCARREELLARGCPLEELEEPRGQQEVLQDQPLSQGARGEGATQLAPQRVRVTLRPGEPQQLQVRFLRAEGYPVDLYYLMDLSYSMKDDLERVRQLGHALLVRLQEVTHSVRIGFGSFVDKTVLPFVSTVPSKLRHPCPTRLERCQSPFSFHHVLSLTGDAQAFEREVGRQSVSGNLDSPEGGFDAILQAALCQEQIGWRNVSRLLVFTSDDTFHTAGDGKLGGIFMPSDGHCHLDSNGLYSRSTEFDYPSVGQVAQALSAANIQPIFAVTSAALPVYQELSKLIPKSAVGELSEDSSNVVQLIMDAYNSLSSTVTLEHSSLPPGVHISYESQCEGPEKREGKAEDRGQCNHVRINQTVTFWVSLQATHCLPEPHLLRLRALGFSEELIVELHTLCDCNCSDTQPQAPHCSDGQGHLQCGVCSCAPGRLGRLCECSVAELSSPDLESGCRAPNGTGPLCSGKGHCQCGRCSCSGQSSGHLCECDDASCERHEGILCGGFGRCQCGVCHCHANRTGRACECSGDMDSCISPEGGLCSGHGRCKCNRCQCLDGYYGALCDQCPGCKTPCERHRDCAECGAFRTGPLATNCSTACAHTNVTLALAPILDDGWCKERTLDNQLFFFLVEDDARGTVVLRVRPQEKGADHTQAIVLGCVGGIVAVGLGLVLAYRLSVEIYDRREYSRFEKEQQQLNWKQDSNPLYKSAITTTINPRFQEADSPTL
Assay: α4β7 Integrin Cell Capture Assay
Format: cell-based
Conditions: capture of α4β7 integrin expressing RPMI8866 cells on recombinant MadCAM-1 extracellular domain-coated plate; 0.5 mM MnCl2
Description: The potency of inhibitors in preventing α4β7 integrin interaction with MadCAM-1 was measured by monitoring the capture of α4β7 integrin expressing cells on a recombinant MadCAM-1 extracellular domain-coated plate. 384-well plates (Corning 3702) were coated with MadCAM-1 extracellular domain by dispensing 20 μL of MAdCAM-1 at 1.0 μg/mL per well and incubating overnight at 4° C. The plates were then washed with PBS and blocked with 3% BSA for 2 hours before being washed again. RPMI8866 cells were spun down and re-suspended in assay medium (DMEM+0.5% FBS+0.5 mM MnCl2) at a density of 0.5×10^6 cells/mL. The cells were then dispensed (60 μL/well) to a 384-well plate (Greiner 781280) that was previously spotted with 60 nL of test compound per well. The plates were incubated at 37° C. for 1 hour. 50 μL of cells were transferred to the blocked, MadCAM-1-coated plates and incubated for 30 minutes at 37° C. 10 μL of 12% glutaraldehyde containing Hoechst 33342 (0.06 mg/mL) was added to the cells (2% glutaraldehyde and 0.01 mg/mL final concentrations). The plates were incubated for 90 minutes at room temperature. The plates were then washed 3 times with 70 μL of PBS per well and imaged on a Cellomics ArrayScan instrument. The cells that were bound to the plate were counted and plotted against the compound concentration to determine the EC50 of the test compounds.

Cc1nc(C)n(C)c(=O)c1-c1ccc(C[C@H](NC(=O)c2c(F)cc(N3CCOC[C@@H]3C(F)(F)F)cc2F)C(=O)O)c2c1OCCC2 (atropisomer, axis not shown) [Example 117]
EC50: 0.203 nM

Cc1nc(C)n(C)c(=O)c1-c1ccc(C[C@H](NC(=O)c2c(F)cc(N3CCOC[C@@H]3C(F)(F)F)cc2F)C(=O)O)c2c1OCCC2 (atropisomer, axis not shown) [Example 118]
EC50: 0.142 nM

Cc1cc(N2CCOC[C@@H]2C(F)(F)F)cc(F)c1C(=O)N[C@@H](Cc1ccc(-c2c(C)nc(C)n(C)c2=O)c2c1CCCO2)C(=O)O (atropisomer, axis not shown) [Example 119]
EC50: 0.089 nM

Cc1cc(N2CCOC[C@@H]2C(F)(F)F)cc(F)c1C(=O)N[C@@H](Cc1ccc(-c2c(C)nc(C)n(C)c2=O)c2c1CCCO2)C(=O)O (atropisomer, axis not shown) [Example 120]
EC50: 0.089 nM

Cc1cc(N2CCOC[C@@H]2C(F)(F)F)cc(F)c1C(=O)N[C@@H](Cc1ccc(-c2c(Cl)cc(C)n(C)c2=O)c2c1CCCO2)C(=O)O (atropisomer, axis not shown) [Example 137]
EC50: 0.089 nM

Cc1cc(N2CCC2)c(-c2ccc(C[C@H](NC(=O)c3c(F)cc(N4CCOC[C@@H]4C(F)(F)F)cc3F)C(=O)O)c3c2OCCC3)c(=O)n1C (atropisomer, axis not shown) [Example 152]
EC50: 0.791 nM

Cc1cc(N2CCC2)c(-c2ccc(C[C@H](NC(=O)c3c(F)cc(N4CCOC[C@@H]4C(F)(F)F)cc3F)C(=O)O)c3c2OCCC3)c(=O)n1C (atropisomer, axis not shown) [Example 153]
EC50: 0.551 nM

Cc1c(-c2ccc(C[C@H](NC(=O)c3c(F)cc(N4CCOC[C@@H]4C(F)(F)F)cc3F)C(=O)O)c3c2OCCO3)c(=O)n(C)c(=O)n1C (single isomer, unassigned) [Example 8]
EC50: 0.301 nM

Cc1c(-c2ccc(C[C@H](NC(=O)c3c(F)cc(N4CCOC[C@@H]4C(F)(F)F)cc3F)C(=O)O)c3c2OCCO3)c(=O)n(C)c(=O)n1C (single isomer, unassigned) [Example 9]
EC50: 0.431 nM

Cc1c(-c2ccc(C[C@H](NC(=O)c3c(F)cccc3F)C(=O)O)c3c2CCOC3)c(=O)n(C)c2ccc(F)cc12 (single isomer, unassigned) [Example 36]
EC50: 24.8 nM

Cc1c(-c2ccc(C[C@H](NC(=O)c3c(F)cccc3F)C(=O)O)c3c2CCOC3)c(=O)n(C)c2ccc(F)cc12 (single isomer, unassigned) [Example 37]
EC50: 1.6 nM

Cc1cc(C(F)(F)F)c(-c2ccc(C[C@H](NC(=O)c3c(F)cc(N4CCOC[C@@H]4C(F)(F)F)cc3F)C(=O)O)c3c2OCCC3)c(=O)n1C (single isomer, unassigned) [Example 39]
EC50: 0.126 nM

Cc1cc(C(F)(F)F)c(-c2ccc(C[C@H](NC(=O)c3c(F)cc(N4CCOC[C@@H]4C(F)(F)F)cc3F)C(=O)O)c3c2OCCC3)c(=O)n1C (single isomer, unassigned) [Example 40]
EC50: 0.889 nM

Cc1cc(C(F)(F)F)c(-c2ccc(C[C@H](NC(=O)c3c(F)cc(N[C@H](C)C(F)(F)F)cc3F)C(=O)O)c3c2OCCC3)c(=O)n1C (single isomer, unassigned) [Example 41]
EC50: 0.594 nM

Cc1cc(C(F)(F)F)c(-c2ccc(C[C@H](NC(=O)c3c(F)cc(N[C@H](C)C(F)(F)F)cc3F)C(=O)O)c3c2OCCC3)c(=O)n1C (single isomer, unassigned) [Example 42]
EC50: 1.42 nM

CC[C@@H](Nc1cc(F)c(C(=O)N[C@@H](Cc2ccc(-c3c(C(F)(F)F)cc(C)n(C)c3=O)c3c2CCCO3)C(=O)O)c(F)c1)C(F)(F)F (single isomer, unassigned) [Example 44]
EC50: 0.29 nM

CC[C@@H](Nc1cc(F)c(C(=O)N[C@@H](Cc2ccc(-c3c(C(F)(F)F)cc(C)n(C)c3=O)c3c2CCCO3)C(=O)O)c(F)c1)C(F)(F)F (single isomer, unassigned) [Example 45]
EC50: 0.964 nM

CC[C@@H](Nc1cc(F)c(C(=O)N[C@@H](Cc2ccc(-c3c(C)n(C)c(=O)n(C)c3=O)c3c2CCCO3)C(=O)O)c(F)c1)C(F)(F)F (single isomer, unassigned) [Example 55]
EC50: 0.152 nM

CC[C@@H](Nc1cc(F)c(C(=O)N[C@@H](Cc2ccc(-c3c(C)n(C)c(=O)n(C)c3=O)c3c2CCCO3)C(=O)O)c(F)c1)C(F)(F)F (single isomer, unassigned) [Example 56]
EC50: 0.961 nM

Cc1c(-c2ccc(C[C@H](NC(=O)c3c(F)cccc3F)C(=O)O)c3c2OCCC3)c(=O)n(C)c2ccccc12 (single isomer, unassigned) [Example 58]
EC50: 2.56 nM

Cc1c(-c2ccc(C[C@H](NC(=O)c3c(F)cccc3F)C(=O)O)c3c2OCCC3)c(=O)n(C)c2ccccc12 (single isomer, unassigned) [Example 59]
EC50: 1.5 nM

Cc1c(-c2ccc(C[C@H](NC(=O)c3c(Cl)cccc3Cl)C(=O)O)c3c2OCCC3)c(=O)n(C)c2ccccc12 (single isomer, unassigned) [Example 61]
EC50: 2.29 nM

Cc1c(-c2ccc(C[C@H](NC(=O)c3c(Cl)cccc3Cl)C(=O)O)c3c2OCCC3)c(=O)n(C)c2ccccc12 (single isomer, unassigned) [Example 62]
EC50: 3.3 nM

O=C(N[C@@H](Cc1ccc(-c2c(Cl)cc(F)cc2Cl)c2c1[C@H]1C[C@H]1CO2)C(=O)O)c1c(F)cccc1F (single isomer, unassigned) [Example 78]
EC50: 120 nM

O=C(N[C@@H](Cc1ccc(-c2c(Cl)cc(F)cc2Cl)c2c1[C@@H]1C[C@@H]1CO2)C(=O)O)c1c(F)cccc1F (single isomer, unassigned) [Example 79]
EC50: 33.1 nM

O=C(N[C@@H](Cc1ccc(-c2c(Cl)cc(F)cc2Cl)c2c1[C@H]1C[C@H]1CO2)C(=O)O)c1c(Cl)cccc1Cl (single isomer, unassigned) [Example 81]
EC50: 109 nM

O=C(N[C@@H](Cc1ccc(-c2c(Cl)cc(F)cc2Cl)c2c1[C@@H]1C[C@@H]1CO2)C(=O)O)c1c(Cl)cccc1Cl (single isomer, unassigned) [Example 82]
EC50: 42 nM

Cn1c(=O)c(-c2ccc(C[C@H](NC(=O)c3c(F)cccc3F)C(=O)O)c3c2OCCO3)cc2ccccc21 [Example 1, (S)-2-(2,6-difluorobenzamido)-3-(8-(1-methyl-2-oxo-1,2-dihydroquinolin-3-yl)-2,3-dihydrobenzo[b][1,4]dioxin-5-yl)propanoic acid]
EC50: 11 nM
